Reference: patent publication US20210161894A1, “Compositions and Methods for Modulating Liver Endothelial Cell Fenestrations” (priority 2017, published 2021)
Entries after “also recorded” stand apart in the source; their conditions may differ.

Assays:
[1] = test system: lipid rafts and fenestrations of LSECs; test: 3D-SIM study of lipid rafts and fenestrations; format: cell-based
Excerpt: Sieve plates containing fenestrations are intercalated between thickened areas of membrane (lipid rafts).

LSEC fenestrations = test: SEM of LSEC fenestrations after drug treatments (Example 2, FIGS. 1-6); format: cell-based, mice; details: for change in fenestration diameter: TRAIL 1 μg/ml; for sieve plates and fenestration density on SEM images: young and old mice; for fenestration porosity: 300 ng/ml
Excerpt: Young and old C57B16 mice (n=3 young mice, age 3-4 and n=3 old mice, 20-24 months) were maintained under full SPF conditions and with ad libitum feeding. The study had the approval of the Sydney South West Area Health Service Animal Welfare Committee. Mice at 20-24 months are senescent. Animals were sacrificed withCO2 and livers immediately perfusion-fixed via a 23G needle inserted into the portal vein. Liver tissue was fixed with1% glutaraldehyde/4% para-formaldehyde in PBS (0.1M sucrose).
Drug treatments and dosages (shown superimposed on their corresponding image in FIGS. 1, and 2) were performed by incubating liver cells at 37° C., 5% CO2 for 30 mins using RPMI with or without dissolved drug. All images were taken by two blinded researchers using a SEM at 10,000×, scale bars of 1 μm are shown.
Each data point represents the average±SD of 8 images (as shown in FIGS. 1 and 2), 616-3312 fenestration raw data points were collected per treatment.

fenestrations = details: young mice; cited from earlier work
[2] = test system: isolated LSECs (liver sinusoidal endothelial cells); test: SEM of fenestrations in isolated LSECs from young and old mice after 30 min drug treatment (second Example 7); format: cell-based; details: for Diameter / Frequency / Porosity: 30 min; for effect on porosity and fenestration frequency (summary in words): young and old LSECs
Protocol: 3-4 and 18-24 month old male C57/B16 mice were obtained from the Animal Resource Centre in Perth, Western Australia. Animals were housed at the ANZAC Research Institute animal house on a 12 hour light/dark cycle and provided with ad libitum access to food and water. Mice were not fasted prior to euthanasia by a single intraperitoneal injection with 100 mg/kg ketamine and 10 mg/kg xylazine in saline. The study was approved by the Animal Welfare Committee of the Sydney Local Health District and was performed in accordance with the Australian Code of Practice for the care and use of animals for scientific research (AWC 2016/009). All information provided accords with the ARRIVE guidelines.
As described previously (Cogger et al. J e52698, 2015 https://dx.doi.org/10.3791/52698), mouse LSEC isolation was performed by perfusion of the liver with collagenase. Non-parenchymal cells were removed by a two-step Percoll gradient and Kupffer cells were removed by selective adherence to plastic. LSECs (seeded at 0.5×10^6 cells/cm2) were cultured (37° C., 5% CO2) in serum free RPMI-1640 for 3.5 hours before use.
Cells were treated with various agents for 30 minutes to determine effects on fenestrations. All agents were dissolved in serum-free RPMI media. All experiments were performed in triplicate for both young and old mice. Actin was disrupted with 0.5 μg/ml cytochalasin D and lipid rafts were disrupted with 3.6 and 1.8 μg/ml 7-keocholesterol; dosages were selected. […] The serotonergic/phospholipase C pathway was promoted with DOI (0.1 μg/ml) and endothelin receptors were inhibited by bosentan (550, 55 and 5.5 ng/ml) Death receptor 4 was promoted with TRAIL (100, 10. 1, 0.1 and 0.01 ng/ml) and NAD+ was promoted with NMN (5000, 50, 10, 1 and 0.1 μg/ml).
SEM was performed as previous described (Corbin et al J Biol Chem 274: 13729-13732, 1999.). LSECs were fixed in 2.5% glutaraldehyde in 0.1M sodium cacodylate buffer, osmicated, dehydrated in graded ethanol and hexamethyl disilazane, mounted on stubs, sputter coated with platinum and examined using a JEOL 6380 Scanning Electron Microscope (JEOL Ltd, Japan). Images at 10,000× magnification were collected by a blinded observer and used to measure fenestration diameter and LSEC porosity using Image J (NIH, MD, USA). […] Fenestrations less than 30 nm and gaps more than 300 nm were excluded from analysis. Porosity was defined as the percentage of the cell membrane covered with fenestrations. Frequency was defined at the number of fenestrations per […].
Individual specifications of analyses are described in figures legends. All data are presented as mean±SD. Experimental design and analysis were performed in accordance with the APS guidelines described in Curran-Everett and Benos DJ. Adv Physiol Educ 31: 295-298, 2007.

Intracellular cGMP = test: Cyclic GMP ELISA; format: cell-based, mice; details: p=0.001
Protocol: Assays for MTT and cGMP were performed as instructed by the kit. Briefly, MTT assays were performed following drug treatments. Cells were washed with PBS and incubated with RPMI media containing […] MTT solution. Cells were incubated at 37° C. for 4 hrs and lysed with […] solubilisation solution, 30 mins colour development followed and measured at 570 nm using a spectrophotometer. cGMP assays were also performed after drug treatments. Cells were washed with PBS and lysed with 0.1M HCl. Following sample collection the sample was acetylated and prepared with kit reagents. Samples were incubated for 18 hrs at 4° C. before examination at 410 nm with a spectrophotometer.

[3] = test system: actin cytoskeleton of LSECs; test: dSTORM imaging of the actin cytoskeleton; format: cell-based; details: young mice
Protocol: dSTORM imaging was performed using an in-house microscope. LSECs were prepared for dSTORM by washing twice with PBS and fixation with 4% paraformaldehyde for 30 mins. Then LSECs were washed twice with PBS, permeabilised with Triton-X for 90 secs, blocked with 5% bovine serum albumin for 1 hour, and stained with Alexa Flour phalloidin 488 (1:40) for 20 min prior to imaging. Cells were washed using PBS with 0.1% Tween and placed in OxEA buffer (30) for dSTORM visualisation and image capture. The dSTORM used 488 and 647 nm excitation from diode-pumped lasers (Coherent Inc, CA, USA). Excitation was delivered via a 1.49NA 60× oil-immersion TIRF objective (Olympus Australia, AUS). Fluorescence was captured on two separate sCMOS cameras (Imaging Development Systems GmbH, Germany). Data was collected for up to 40,000 images at around 75 fps. 5-8 whole cell images were collected by a blinded observer for each treatment dosage and processed using rapidSTORM open source software (Wolter et al. Nat Methods 9: 1040, 2012.). Each image was examined for all sieve plates and actin structures. Densitometry measurements were performed using 5-8 dSTORM images with data analysis performed using Image J software (NIH, MD, USA).

[4] = old mice, 7KC 4.5 μM, Bosentan 0.1 μM, Sildenafil 300 ng/ml

CC(C)CCC[C@@H](C)[C@H]1CC[C@H]2[C@@H]3C(=O)C=C4C[C@@H](O)CC[C@]4(C)[C@H]3CC[C@]12C [7-ketocholesterol]
effect on fenestrations and lipid rafts [1]: increased fenestrations and decreased rafts | diameter of fenestrations observed on SEM images (LSEC fenestrations): Increased diameter of fenestrations | change in fenestration diameter (LSEC fenestrations; [4]): Increased fenestration diameter | change in fenestration porosity (LSEC fenestrations; old mice, Cytochalasin D 0.5 μg/ml, DOI 0.1 μg/ml, 7KC 9 μM, Amlodipine 20 ng/ml): increased porosity | change in fenestration frequency (LSEC fenestrations; old mice, Cytochalasin D 0.5 μg/ml, DOI 0.1 μg/ml, 7KC 9 μM, Bosentan 0.1 μM, Sildenafil 300 ng/ml, Amlodipine 20 ng/ml): increased | sieve plates and fenestration density on SEM images (LSEC fenestrations): promoted increased fenestrations but limited clearly definable sieve plates | change in fenestration porosity (LSEC fenestrations; young mice, Cytochalasin D 0.5 μg/ml, DOI 0.1 μg/ml, 7KC 9 μM, Amlodipine 20 ng/ml): increased porosity | fenestration porosity and diameter (previously reported) (fenestrations): increase fenestration porosity in young mice without any significant effects on fenestration diameter | gap formation [2]: Gap formation was apparent | increase in fenestration diameter [2]: 15 nm | fenestrations in LSECs from old mice ([2]; old mice): increased fenestrations | Diameter ([2]; old mice, 1.8 μg/ml): 154.41 ± 13.07 nm | Frequency ([2]; old mice, 1.8 μg/ml): 2.65 ± 0.94 no/area | Porosity ([2]; old mice, 1.8 μg/ml): 5.19 ± 0.95 % | Diameter ([2]; old mice, 3.6 μg/ml): 139.46 ± 17.45 nm | Frequency ([2]; old mice, 3.6 μg/ml): 3.15 ± 0.08 no/area | Porosity ([2]; old mice, 3.6 μg/ml): 5.34 ± 1.17 % | effect on porosity and fenestration frequency (summary in words) [2]: significant increases in porosity and fenestration frequency in both young and old LSECs | fenestration diameter ([2]; young and old mice, P<0.05): increased fenestration diameter in both young and old mice | Diameter ([2]; young mice, 1.8 μg/ml): 142.35 ± 8.02 nm | Frequency ([2]; young mice, 1.8 μg/ml): 3.59 ± 0.78 no/area | Porosity ([2]; young mice, 1.8 μg/ml): 6.10 ± 1.82% | Diameter ([2]; young mice, 3.6 μg/ml): 148.59 ± 7.70 nm | Frequency ([2]; young mice, 3.6 μg/ml): 4.36 ± 0.93 no/area | Porosity ([2]; young mice, 3.6 μg/ml): 8.03 ± 1.37 % | shift in frequency distribution of fenestration diameter ([2]; young mice, NMN 5000 μg/ml, 7-ketocholesterol 3.6 μg/ml): decreased 30-125 nm diameter fenestrations and an increase in 150-3000 sized fenestrations

CCCc1nn(C)c2c(=O)[nH]c(-c3cc(S(=O)(=O)N4CCN(C)CC4)ccc3OCC)nc12 [Sildenafil, sildenafil]
increase of intracellular cGMP (Intracellular cGMP): 3 fold | fenestration porosity (LSEC fenestrations; old mice): 5.4±1.9% | change in fenestration diameter (LSEC fenestrations; [4]): No changes | sieve plates and fenestration density on SEM images (LSEC fenestrations): maintained sieve plates and increased fenestration density | fenestration porosity (LSEC fenestrations; young mice): 7.1±2.2% | change in fenestration diameter (LSEC fenestrations; young mice, Bosentan 0.1 μM, Sildenafil 300 ng/ml): No changes | actin changes with drug treatments (dSTORM) [3]: disordered, dense actin staining in the plasma membrane and clustering of actin within the cytoplasm; also recorded: Disordered actin structure; also recorded: Gap formations; also recorded: Individual fenestrations | actin changes with drug treatments (dSTORM) ([3]; listed as sildenafil): loss of smooth fibres encircling the cytoplasm | Diameter ([2]; old mice, 0.3 μg/ml): 138.91 ± 13.05 nm | Frequency ([2]; old mice, 0.3 μg/ml): 3.41 ± 0.68 no/area | Porosity ([2]; old mice, 0.3 μg/ml): 5.49 ± 1.33 % | Diameter ([2]; old mice, 0.6 μg/ml): 143.69 ± 10.80 nm | Frequency ([2]; old mice, 0.6 μg/ml): 2.88 ± 01.16 no/area | Porosity ([2]; old mice, 0.6 μg/ml): 4.97 ± 1.34 % | effect on porosity and fenestration frequency (summary in words) [2]: significant increases in porosity and fenestration frequency in both young and old LSECs | dose response on fenestration porosity (words) ([2]; young mice): limited dosage range for positive effects on fenestration porosity | Diameter ([2]; young mice, 0.3 μg/ml): 126.34 ± 16.36 nm | Frequency ([2]; young mice, 0.3 μg/ml): 4.54 ± 0.34 no/area | Porosity ([2]; young mice, 0.3 μg/ml): 6.34 ± 2.09 % | Diameter ([2]; young mice, 0.6 μg/ml): 130.33 ± 16.02 nm | Frequency ([2]; young mice, 0.6 μg/ml): 3.56 ± 0.61 no/area | Porosity ([2]; young mice, 0.6 μg/ml): 4.92 ± 0.35% | dose response on fenestration porosity (words) ([2]; young mice, listed as sildenafil): did not promote greater changes in fenestration porosity or frequency | fenestration numbers, fenestrated cell area and sieve plate formation ([2]; young mice, sildenafil 0.3 μg/ml, amlodipine 20 ng/ml, TRAIL 1 ng/ml): increased fenestration numbers and overall fenestrated cell area with some disruption to sieve plate formation
